Data taken from patent publication US12582614B2, “Composition for preventing, alleviating or treating sarcopenia, containing D-ribo-2-hexulose as active ingredient” (KYUNGPOOK NATIONAL UNIVERSITY INDUSTRY-ACADEMIC COOPERATION …, priority 2021, dated 2026).

Key:
Format in all cases: in vivo, C57BL/6J male mice
[1] = Lipid profiles of muscles and plasma
Experimental: Plasma TG and TC analysis was performed using an enzyme kit (Asan Pharmaceutical Co., Ltd., Korea). Free fatty acid (FFA) was also measured using an enzyme kit (Abcam., USA). Liver and muscle lipids were extracted, and the dried lipid residue was then dissolved in 1 mL of ethanol for the measurement of TG, TC, and FFA. For emulsification, Triton X-100 and a sodium cholate solution were added to 200 μL of the dissolved lipid solution. The TG, TC, and FFA were analyzed in the same kit as the enzyme kit used for plasma lipid analysis.

[2] = tested on: CISH, CerS1, Adiponectin, Adipsin, CIDEC, Haptoglobin, Neuronatin, SCD1; assay: mRNA sequencing of gastrocnemius tissue (differentially expressed genes); conditions: vs NC group, FC cutoff 2 or more, p < 0.05
aged mice = assay: Weights of quadriceps, anterior tibialis and gastrocnemius tissues; conditions: per 100 g body weight, DRH group vs NC group
Experimental: Specifically, a negative control group (NC, n=7, American Institute of Nutrition AIN-93G Semisynthetic diet); a D-ribo-2-hexulose-treated group (D-ribo-2-hexulose; DRH, n=7; a portion of cellulose in AIN-93G was replaced with 3% D-ribo-2-hexulose). […] The dose of D-ribo-2-hexulose was set at 3% based on previous animal studies. In the previous studies, the dose of D-ribo-2-hexulose was determined to be 3% in order to investigate a biological effect at a lower dose than the dose. During the experiment, the mice had free access to distilled water, and the food intakes and body weights of the mice were measured weekly, and blood glucose was measured once every 4 weeks. All animal experiments were approved by the Animal Research Ethics Committee of KyungPook National University (Approval Number: KNU-2020-109).

TNF-α = assay: Western blotting of TNF-α expression; conditions: DRH group vs NC group
Experimental: The amount of cytoplasmic and membrane proteins was quantified according to the Bradford method. Thereafter, a protein load was applied onto a 10% SDS-polyacrylamide gel, transferred to a Tris-glycine electrophoresis buffer for an hour, and then electrophoresed. The positions of the bands were confirmed using a Ponceau solution, blocking (5% skim milk in TBS/0.1% Tween-20) was performed at room temperature for 60 minutes in order to reduce non-specific reactions to the membrane. Then, the samples were reacted with a primary antibody overnight at 4° C. […]

[3] = tested on: differentially expressed genes (DEG); assay: RT-PCR and Western blotting verification of differentially expressed genes; conditions: verification of mRNA-seq results
Experimental: (§1) After total RNA was isolated, total complementary DNA (cDNA) was synthesized. For real-time PCR analysis, template cDNA was diluted with RNAse-free water and used at a concentration of 25 ng/μL. Then, gene expression was analyzed using a QuantitTeck SYBR Green PCR kit (QIAGEN, Germany).
Each of the reaction solutions consisted of 10 μL of SYBR Green, 2 μL of a template, and 200 μM primers. RNAse-free water was added to a final volume of 20 μL, and reacted at 94° C. for 15 seconds, and then 58° C. and 72° C. for 30 seconds. The reaction solution was reacted 40 times at 65° C. for 30 seconds at 15 seconds per cycle. In this case, by monitoring the fluorescence signal for each cycle and analyzing the resulting threshold cycle (Ct), mRNA expression between the respective experimental groups was quantitatively analyzed using a CFX96 Real-time system (Bio-Rad, USA). […]
The amount of cytoplasmic and membrane proteins was quantified according to the Bradford method. […]

[4] = tested on: MyoD, Myf5, Myf6, Myogenin, Mef2, MuRF1, Atrogin1, FoxO3; assay: Real-time PCR of muscle strength-related genes
Experimental: as §1
Each of the reaction solutions consisted of 10 μL of SYBR Green, 2 μL of a template, and 200 μM primers. RNAse-free water was added to a final volume of 20 μL, and reacted at 94° C. for 15 seconds, and then 58° C. and 72° C. for 30 seconds. The reaction solution was reacted 40 times at 65° C. for 30 seconds at 15 seconds per cycle. In this case, by monitoring the fluorescence signal for each cycle and analyzing the resulting threshold cycle (Ct), mRNA expression between the respective experimental groups was quantitatively analyzed using a CFX96 Real-time system (Bio-Rad, USA). GAPDH (Gene ID 14433) was used as an internal transcriptional marker, and the gene primers used for amplification were as follows: MyoD (myoblast determination protein 1, Gene ID 17927), Myf5 (Gene ID 17877), Myf6 (Gene ID 17878), Myogenin (Gene ID 17928), Mef2 (Gene ID 17260), MuRF1 (Gene ID […]), Atrogin1 (Gene ID 67731), FoxO3 (Gene ID 56484), CerS1 (Gene ID 93898(3)1), CIDEC1 (Gene ID 12700), SCD1 (Gene ID 20249), Adipsin (complement factor D, Gene ID 11537), Adiponectin (Gene ID 11450), Haptoglobin (Gene ID 15439), and Neuronatin (Gene ID 18111).

[5] = decrease in NC vs YC, DRH vs NC significant

For `O=C(CO)[C@H](O)[C@H](O)[C@H](O)CO` [DRH, D-ribo-2-hexulose], the “muscle fatty acid level” value ([1]; DRH group vs NC group) was “no significant difference”, the “muscle total cholesterol (TC) level” value ([1]; DRH group vs NC group) was “no significant difference” and the plasma fatty acids ([1]; DRH group vs NC group) was “significantly decreased”. The “plasma TC level” value ([1]; increase in NC vs YC) was “improved”, the “plasma TG level” value ([1]; increase in NC vs YC) was “improved” and the “muscle triglyceride (TG) level” value ([1]; increase with aging) was “significantly reduced this increase”. The “Adiponectin expression (mRNA-seq)” value [2] was “down-regulated”, the “Adipsin expression (mRNA-seq)” value [2] was “down-regulated” and the “CIDEC expression (mRNA-seq)” value [2] was “down-regulated”. The “CISH expression (mRNA-seq)” value [2] was “up-regulated”, the “CerS1 expression (mRNA-seq)” value [2] was “up-regulated” and the “Haptoglobin expression (mRNA-seq)” value [2] was “down-regulated”. For the same compound, the “Neuronatin expression (mRNA-seq)” value [2] was “down-regulated”, the “SCD1 expression (mRNA-seq)” value [2] was “down-regulated” and the “weight of the left anterior tibialis” value (aged mice) was “significantly increased”. The “weights of the right and left quadriceps” value (aged mice) was “significantly increased”, the TNF-α expression (TNF-α) was “significantly decreased” and the “RT-PCR analysis and Western blotting on DEG” value [3] was “consistent with those obtained by mRNA-seq analysis”. The “expression of Atrogin1 gene” value ([4]; all three groups (YC, NC, DRH)) was “no significant difference”, the “expression of FoxO3 gene” value ([4]; all three groups (YC, NC, DRH)) was “no significant difference” and the “expression of MuRF1 gene” value ([4]; all three groups (YC, NC, DRH)) was “no significant difference”. The “expression of MyoD gene” value ([4]; all three groups (YC, NC, DRH)) was “no significant difference”, the “expression of Myf5 gene” value [4, 5] was “partially improved” and the “expression of Myf6 gene” value [4, 5] was “partially improved”. For the same compound, the “expression of Myogenin gene” value [4, 5] was “partially improved”.
